Marks after values point to notes of the source that are not given here.
What was measured:
[1] = Dissolution of test material in saline; format: physicochemical; settings: mirodenafil 2HCl
Method: The mirodenafil (mirodenafil 2HCl; SK Chemical Life Science Business, KR) was used in this experiment. […] Mirodenafil was stored at 4° C. in a refrigerator to protect from light and humidity until used. Three different dosages, 0.5, 1 and 2 mg/kg of mirodenafil were directly dissolved in saline and subcutaneously administered in a volume of 1 ml/kg on the dorsal back skins, once a day for 28 days from 24 hrs after stabilization periods from operation. In saline and neuron apoptosis control rats, equal volumes of saline as vehicle were administered, instead of mirodenafil, respectively.
The mirodenafil (mirodenafil 2HCl; SK Chemical Life Science Business, KR) was used in this experiment. […] Mirodenafil was stored at 4° C. in a refrigerator to protect from light and humidity until used. Mirodenafil were directly dissolved in saline as 1 mg/ml concentrations, and subcutaneously administered in a volume of 1 ml/kg on the dorsal back skins from 24, 72 and 168 hrs after neuron apoptosis, once a day for 14 days, respectively. In saline and neuron apoptosis control rats, equal volumes of saline as vehicle were administered, instead of mirodenafil from 24 hrs after neuron apoptosis for 20 days, respectively.

caspase-3 = experiment: Example 2 immunohistochemistry: caspase-3-immunoreactive cells; format: in vivo, Sprague-Dawley (SD) rats; settings: for Numbers of neurons: Caspase-3+: 1 mg/kg s.c. once a day for 14 days, 29 days after neuron apoptosis
Method: The induction of neuron apoptosis was carried out by damaging the right hemisphere of the brain of animals. Specifically, animals were anesthetized with 2 or 3% isoflurane in the mixture of 70% N2O and 28.5% O2, and were maintained with 1 to 1.5% isoflurane in the mixture of 70% N2O and 28.5% O2. After that the temporalis muscle was bisected and reflected through an incision made midway between the eye and the eardrum canal. The proximal MCA was exposed through a subtemporal craniectomy by microdental drills without removing the zygomatic arch and without transecting the facial nerve. […] Mortality was less than 5%. For sham control, all procedures were performed in the same way, with the exception of the occlusion of the MCA.
After deparaffinized of prepared […] histological paraffin sections, citrate buffer antigen (epitope) retrieval pretreatment were conducted as previously (Shi S R et al., J Histochem Cytochem. 41:1599-604(1993)). Briefly, pre-heat water bath with staining dish containing 10 mM citrate buffers (pH 6.0) until temperature reaches 95-100° C. Immerse slides in the staining dish and place the lid loosely on the staining dish. Incubate for 20 minutes and turn off the water bath. Place the staining dish at room temperature and allow the slides to cool for 20 minutes. After epitope retrievals, sections were immunostained using avidin-biotin complex (ABC) methods for caspase-3 and PARP. Endogenous peroxidase activity was blocked by incubated in methanol and 0.3% H2O2 for 30 minutes, and non-specific binding of immunoglobulin was blocked with normal horse serum blocking solution (Vector Lab., Burlingame, Calif., USA. Dilution 1:100) for 1 hr in humidity chamber. Primary antiserum were treated for overnight at 4° C. in humidity chamber, and then incubated with biotinylated universal secondary antibody (Vector Lab., Dilution 1:50) and ABC reagents (Vectastain Elite ABC Kit, Vector Lab., Dilution 1:50) for 1 hr at room temperature in humidity chamber. Finally, reacted with peroxidae substrate kit (Vector Lab.) for 3 min at room temperature. All sections were rinse in 0.01M PBS for 3 times, between steps. The neurons occupied by over 10% of immunoreactivities, the density, of each antiserum for caspase-3 and PARP were regarded as positive, and the mean numbers of caspase-3 and PARPimmunoreactive cells dispersed in the mm^2 of ipsilateral peri-infarct/defect cerebral cortex were counted using an automated image analysis process as establish methods (Lee et al., 2010; Song et al., 2012), respectively. The histopathologist was blinded to the group distribution when performing the analysis.
All data were expressed as mean±standard deviation (S.D.) of ten rats. Multiple comparison tests for different dose groups were conducted. Variance homogeneity was examined using the Levene test (Levene A, Clin Otalary, 1981; 6:145-51). […] Statistical analyses were conducted using SPSS for Windows (Release 14K, SPSS Inc., USA; Ludbrook, Clin Exp Pharmacol Physiol, 1997; 24:294-6). In addition, the percent changes as compared with neuron apoptosis control and mirodenafil treated rats were calculated to help the understanding of the efficacy of test substances as follow Equation 6 and 7. Percentage Changes as Compared with Sham Control (%)=[((Data of neuron apoptosis control−Data of sham control rat)/Data of sham control rats)×100] [EQUATION 6] Percentage Changes as Compared with neuron apoptosis Control (%)=[((Data of test material treated rats−Data of neuron apoptosis control rats)/Data of neuron apoptosis control rats)×100] [EQUATION 7]

[2] = Example 1 body weight measurements; format: in vivo, Sprague-Dawley (SD) rats; settings: for Body weights at 1 day before surgery / Body weights at surgery [A]: before treatment, in g
Method: Changes of body weight were measured at 1 day before neuron apoptosis, the day of neuron apoptosis, 1, 7 14, 21, 28 and 29 days after neuron apoptosis using an automatic electronic balance. To reduce the individual differences, the body weight gains after neuron apoptosis and continuous oral treatment of materials were calculated as follows. Body weight gains (g) during 29 days after neuron apoptosis=(Body weight at the 29 days after neuron apoptosis−body weight at the day of neuron apoptosis) [EQUATION 2]
All data were expressed as mean±standard deviation (S.D.) of ten rats. Multiple comparison tests for different dose groups were conducted. Variance homogeneity was examined using the Levene test (Levene A, Clin Otalary, 1981; 6:145-51). […] Statistical analyses were conducted using SPSS (Release 14K, SPSS Inc., USA; Ludbrook, Clin Exp Pharmacol Physiol, 1997; 24:294-6). In addition, the percent changes between neuron apoptosis control and mirodenafil treated rats were calculated to help the understanding of the efficacy of test material as follow equation 3. Percentage changes as compared with neuron apoptosis control (%)=[((Data of mirodenafil treated groups−Data of neuron apoptosis control)/Data of neuron apoptosis control)×100] [EQUATION 3]

CCCOc1ccc(S(=O)(=O)N2CCN(CCO)CC2)cc1-c1nc2c(CCC)cn(CC)c2c(=O)[nH]1 [Mirodenafil, mirodenafil]
solubility in saline [1]: well dissolved in saline | numbers of caspase-3-immunoreactive neurons at 29 days, change as compared with neuron apoptosis control (caspase-3; 1 mg/kg from 24 hrs after surgery): −57.29% | numbers of caspase-3-immunoreactive neurons at 29 days, change as compared with neuron apoptosis control (caspase-3; 1 mg/kg from 72 hrs after surgery): −40.63% | numbers of caspase-3-immunoreactive neurons at 29 days, change as compared with neuron apoptosis control (caspase-3; 1 mg/kg from 168 hrs after surgery): −15.57% | Numbers of neurons: Caspase-3+ (caspase-3; start 24 hrs after operation): 30.01 ± 4.90^ab cells/mm^2 of cerebral cortex | Numbers of neurons: Caspase-3+ (caspase-3; start 72 hrs after operation): 41.71 ± 6.34^ab cells/mm^2 of cerebral cortex | Numbers of neurons: Caspase-3+ (caspase-3; start 168 hrs after operation): 59.33 ± 5.13^a cells/mm^2 of cerebral cortex | Body weights at 1 day before surgery ([2]; 0.5 mg/kg group): 540.70 ± 23.66 | Body weights at surgery [A] ([2]; 0.5 mg/kg group): 510.20 ± 26.08 | body weight gains during 29 days, change as compared with neuron apoptosis control ([2]; 1 mg/kg): 218.52% | Body weights at 1 day before surgery ([2]; 1 mg/kg group): 539.70 ± 27.54 | Body weights at surgery [A] ([2]; 1 mg/kg group): 510.30 ± 28.32 | body weight gains during 29 days, change as compared with neuron apoptosis control ([2]; 2 mg/kg): 155.74% | Body weights at 1 day before surgery ([2]; 2 mg/kg group): 543.30 ± 26.39 | Body weights at surgery [A] ([2]; 2 mg/kg group): 513.40 ± 27.21

From patent publication US10064865B2, “Composition comprising phosphodiesterase type 5 inhibitor for inhibiting apoptosis of nerve cells” (ARIBIO INC., priority 2012, dated 2018)
